Test results published in patent US20240139333A1, “2,6-DICHLOROPHENYL ESTER COMPOUNDS AND USE THEREOF” (Fusion Pharmaceuticals Inc., priority 2021, published 2024).

Legend:
[1] = Comparative active ester reactivity study with HOPO nucleophile; settings: 1,2-HOPO 1 eq., 22±2° C.
Method: (§1) General Experimental Protocol for Comparative Active Ester Reactivity Study with HOPO or HOA Nucleophiles
(§2) To a 4 mL scintillation vial containing Compound A-E (in respective experiments; 1 eq.) was added a stir bar followed by 150 μL of HPLC grade acetonitrile. In another 4 mL scintillation vial containing a respective nucleophile (1 eq.) was added 280 μL HPLC grade water. The solutions were combined and allowed to stir at room temperature (22±2° C.) for 4 hours. Timed aliquots at time (T)=15, 30, 60, 120 and 240 minutes were taken and analyzed by HPLC-MS using elution method 1 (Table 1).

[2] = Active ester reactivity study with amino acids (N-Acetyl-L-Cysteine); settings: N-Acetyl-L-Cysteine 5 eq., 22±2° C.
Method: (§3) General Experimental Protocol for Nucleophilic Reactivity Study with Amino Acids
as §2, with “A or C (1” for “A-E (in respective experiments; 1”, “70” for “150”, “amino acid (1-5” for “nucleophile (1”, “130” for “280”, “water followed by diisopropylethylamine (5 eq.).” for “water.”, “6).” for “1).”

[3] = Active ester reactivity study with amino acids (Z-Arg-OH); settings: Z-Arg-OH 1 eq., 22±2° C.
Method: as §3
as §2, with “A or C (1” for “A-E (in respective experiments; 1”, “70” for “150”, “amino acid (1-5” for “nucleophile (1”, “130” for “280”, “water followed by diisopropylethylamine (5 eq.).” for “water.”, “6).” for “1).”

DMSO stability study = type: physicochemical
Method: To a 4 mL scintillation vial containing Compound A-E (in respective experiments; 4 mg) was added a stir bar followed by 500 μL of anhydrous dimethyl sulfoxide and was allowed to stir at room temperature (22±2° C.) for 4 hours. Timed aliquots at time (T)=15, 30, 60, 120 and 240 minutes were taken, dissolved in water to achieve 2% DMSO composition and analyzed by HPLC-MS using elution method 1 (Table 5).

[4] = Nucleophilic reactivity study with L-Lysine; settings: L-Lysine 5 equiv
Method: General Experimental Protocol for Nucleophilic Reactivity Study with L-Lysine
To a 4 mL scintillation vial containing Compound A-E (in respective experiments; 1 eq.) was added a stir bar followed by 70 μL of HPLC grade acetonitrile. In another 4 mL scintillation vial containing L-Lysine monohydrochloride (5 eq.) was added 130 μL HPLC grade water followed by diisopropylethylamine (5 eq.). The solutions were combined and allowed to stir at room temperature (22±2° C.). Timed aliquots at time (T)=15, 30, 60 and 120 minutes were taken and analyzed by HPLC-MS using elution method 1 (Table 2).

[5] = Comparative active ester reactivity study with HOA nucleophile (benzhydroxamic acid); settings: Benzhydroxamic Acid 1 eq., 22±2° C.
Method: as §1, §2

[6] = Active ester reactivity study with amino acids (Z-Ser-OH); settings: Z-Ser-OH 1 eq., 22±2° C.
Method: as §3
as §2, with “A or C (1” for “A-E (in respective experiments; 1”, “70” for “150”, “amino acid (1-5” for “nucleophile (1”, “130” for “280”, “water followed by diisopropylethylamine (5 eq.).” for “water.”, “6).” for “1).”

[7] = Comparative active ester reactivity study with HOA nucleophile (N-hydroxy-N-methylbenzamide); settings: N-Hydroxy-N-methylbenzamide 1 eq., 22±2° C.
Method: as §1, §2

[8] = Temperature stability study in H2O; type: physicochemical
Method: 20° C.: To a 4 mL scintillation vial containing Compound A-E (in respective experiments; 0.8 mg) was added 4 mL of HPLC grade water to create a 0.2 mg/mL solution. 2 mL of this solution was added to a 2 mL HPLC vial and placed in the auto sampler of an HPLC-MS at 20° C. Timed aliquots at time (T)=15, 30, 60, 120, 240 and 480 minutes were taken and analyzed by HPLC-MS using elution method 1 (Table 4).
50° C.: To a 4 mL scintillation vial containing Compound A-E (in respective experiments; 0.8 mg) was added a stir bar followed by 4 mL of HPLC grade water to create a 0.2 mg/mL solution. The vial was capped and allowed to stir in a 50° C. oil bath for 8 hours. Timed aliquots at time (T) =15, 30, 60, 120, 240 and 480 minutes were taken and analyzed by HPLC-MS using elution method 1 (Table 4).

O=C(CCc1cccnc1)Oc1c(Cl)cccc1Cl [Compound A, 2,6-Dichlorophenyl-3-(pyridin-3-yl)propanoate]
% Active Ester Remaining ([1]; 15 min): 99.32% | % Active Ester Remaining ([1]; 30 min): 98.56% | % Active Ester Remaining ([1]; 60 min): 96.90% | % Active Ester Remaining ([1]; 120 min): 95.51% | % Active Ester Remaining ([1]; 240 min): 93.74% | % Active Ester Remaining ([2]; 15 min): 100% | % Active Ester Remaining ([2]; 30 min): 99.86% | % Active Ester Remaining ([2]; 60 min): 99.84% | % Active Ester Remaining ([2]; 120 min): 99.70% | % Active Ester Remaining ([2]; 240 min): 82.52% | % Active Ester Remaining ([3]; 15 min): 94.23% | % Active Ester Remaining ([3]; 30 min): 90.34% | % Active Ester Remaining ([3]; 60 min): 86.74% | % Active Ester Remaining ([3]; 120 min): 78.45% | % Active Ester Remaining ([3]; 240 min): 73.31% | % Active Ester Remaining in DMSO at 22 ± 2° C. (DMSO stability study; 15 min): 100% | % Active Ester Remaining in DMSO at 22 ± 2° C. (DMSO stability study; 30 min): 99.95% | % Active Ester Remaining in DMSO at 22 ± 2° C. (DMSO stability study; 60 min): 99.81% | % Active Ester Remaining in DMSO at 22 ± 2° C. (DMSO stability study; 120 min): 99.75% | % Active Ester Remaining in DMSO at 22 ± 2° C. (DMSO stability study; 240 min): 99.60% | % Active Ester Remaining ([4]; 15 min, 22±2° C.): 60.44% | % Active Ester Remaining ([4]; 30 min, 22±2° C.): 26.31% | % Active Ester Remaining ([4]; 60 min, 22±2° C.): 0.98% | % Active Ester Remaining ([4]; 120 min, 22±2° C.): 0% | % Active Ester Remaining ([4]; DMAP 10 mol % added, 15 min): 0.86% | % Active Ester Remaining ([4]; DMAP 10 mol % added, 30 min): 0% | % Active Ester Remaining ([5]; 15 min): 97.05% | % Active Ester Remaining ([5]; 30 min): 95.97% | % Active Ester Remaining ([5]; 60 min): 92.36% | % Active Ester Remaining ([5]; 120 min): 86.65% | % Active Ester Remaining ([5]; 240 min): 78.07% | % Active Ester Remaining ([6]; 15 min): 97.56% | % Active Ester Remaining ([6]; 30 min): 97.14% | % Active Ester Remaining ([6]; 60 min): 96.30% | % Active Ester Remaining ([6]; 120 min): 93.35% | % Active Ester Remaining ([6]; 240 min): 91.55% | % Active Ester Remaining ([7]; 15 min): 99.57% | % Active Ester Remaining ([7]; 30 min): 99.24% | % Active Ester Remaining ([7]; 60 min): 98.36% | % Active Ester Remaining ([7]; 120 min): 96.11% | % Active Ester Remaining ([7]; 240 min): 92.22% | % Remaining ([8]; 20° C., 15 min): 100% | % Remaining ([8]; 20° C., 30 min): 100% | % Remaining ([8]; 20° C., 60 min): 100% | % Remaining ([8]; 20° C., 120 min): 100% | % Remaining ([8]; 20° C., 240 min): 100% | % Remaining ([8]; 20° C., 480 min): 100% | % Remaining ([8]; 50° C., 15 min): 96.12% | % Remaining ([8]; 50° C., 30 min): 92.86% | % Remaining ([8]; 50° C., 60 min): 88.94% | % Remaining ([8]; 50° C., 120 min): 84.24% | % Remaining ([8]; 50° C., 240 min): 82.50% | % Remaining ([8]; 50° C., 480 min): 81.87%

O=C(CCc1cccnc1)Oc1c(F)c(F)cc(F)c1F [Compound C, 2,3,5,6-Tetrafluorophenyl-3-(pyridin-3-yl)propanoate]
% Active Ester Remaining ([1]; 15 min): 40.02% | % Active Ester Remaining ([1]; 30 min): 17.81% | % Active Ester Remaining ([1]; 60 min): 9.78% | % Active Ester Remaining ([1]; 120 min): 5.19% | % Active Ester Remaining ([1]; 240 min): 0.94% | % Active Ester Remaining ([2]; 15 min): 95.12% | % Active Ester Remaining ([2]; 30 min): 91.95% | % Active Ester Remaining ([2]; 60 min): 85.25% | % Active Ester Remaining ([2]; 120 min): 56.62% | % Active Ester Remaining ([2]; 240 min): 0% | % Active Ester Remaining ([3]; 15 min): 22.34% | % Active Ester Remaining ([3]; 30 min): 3.47% | % Active Ester Remaining ([3]; 60 min): 0.36% | % Active Ester Remaining ([3]; 120 min): 0% | % Active Ester Remaining in DMSO at 22 ± 2° C. (DMSO stability study; 15 min): 96.55% | % Active Ester Remaining in DMSO at 22 ± 2° C. (DMSO stability study; 30 min): 94.71% | % Active Ester Remaining in DMSO at 22 ± 2° C. (DMSO stability study; 60 min): 93.91% | % Active Ester Remaining in DMSO at 22 ± 2° C. (DMSO stability study; 120 min): 92.60% | % Active Ester Remaining in DMSO at 22 ± 2° C. (DMSO stability study; 240 min): 88.57% | % Active Ester Remaining ([4]; 15 min, 22±2° C.): 0% | % Active Ester Remaining ([5]; 15 min): 58.86% | % Active Ester Remaining ([5]; 30 min): 45.60% | % Active Ester Remaining ([5]; 60 min): 32.39% | % Active Ester Remaining ([5]; 120 min): 18.88% | % Active Ester Remaining ([5]; 240 min): 9.26% | % Active Ester Remaining ([6]; 15 min): 41.75% | % Active Ester Remaining ([6]; 30 min): 28.90% | % Active Ester Remaining ([6]; 60 min): 10.96% | % Active Ester Remaining ([6]; 120 min): 2.89% | % Active Ester Remaining ([6]; 240 min): 0.12% | % Active Ester Remaining ([7]; 15 min): 81.12% | % Active Ester Remaining ([7]; 30 min): 72.43% | % Active Ester Remaining ([7]; 60 min): 61.68% | % Active Ester Remaining ([7]; 120 min): 50.09% | % Active Ester Remaining ([7]; 240 min): 37.80% | % Remaining ([8]; 20° C., 15 min): 95.77% | % Remaining ([8]; 20° C., 30 min): 91.82% | % Remaining ([8]; 20° C., 60 min): 87.38% | % Remaining ([8]; 20° C., 120 min): 81.04% | % Remaining ([8]; 20° C., 240 min): 70.85% | % Remaining ([8]; 20° C., 480 min): 56.62% | % Remaining ([8]; 50° C., 15 min): 79.21% | % Remaining ([8]; 50° C., 30 min): 74.51% | % Remaining ([8]; 50° C., 60 min): 65.73% | % Remaining ([8]; 50° C., 120 min): 42.50% | % Remaining ([8]; 50° C., 240 min): 6.78% | % Remaining ([8]; 50° C., 480 min): 2.35%
